Where a SMILES comes first, the peptide text is derived from it. The star is where a group is joined. Cbz = O=C(OCc1ccccc1)*; CH2F = FC*
How the values were obtained:
[1] = test system: SYO-1 and FUJI cell lines; experiment: Treatment with G6PD inhibitor DHEA and DHEA analogs, cell death; type: cell-based; conditions: over a course of 48 hours
Procedure: (§1) For FACS analysis, cell lines were plated at 200,000 cells per well, and incubated in various culture conditions. Media was collected in a FACS tube and samples were washed with PBS. The PBS was transferred into the FACS tube, and 0.5 mL 0.05% Trypsin/EDTA was added to each well. Samples were incubated for 5 minutes at 37° C., and diluted with 0.5 mL complete media before being transferred to the FACS tube. Wells were washed once with PBS, transferred to the FACS tube, and centrifuged at 800 g for 5 minutes at room temperature. The supernatant was aspirated off, and pellets were resuspended in 200 μL PBS (unstained control samples used for gating) or 200 μL of 1 μg/mL propidium iodide dissolved in PBS. Samples were run on a FAScan instrument and fluorescence analyzed on the Blue FL2 channel. Data was further analyzed using FloJo software.
(§2) For the evaluation of glucose deprivation alone and under additional conditions, cell lines were plated in a 6-well format at 200,000 cells per well on day 1. SYO was cultured and plated in Dulbecco's Modified Eagle Medium (DMEM) with 10% FBS and penicillin/streptomycin (include additional glucose concentration), which FUJI was cultured in RPMI medium with 10% FBS and penicillin/streptomycin. […] Samples were then ran and fluorescence analyzed via Blue FL2 channel on a FAScan instrument. […]

[2] = test system: SYO-1 xenograft tumor; experiment: SYO-1 xenograft in nude athymic mice, tumor size; type: in vivo; conditions: 1 mg/day for 12 days
Procedure: Sixty nude athymic mice (Nu/J homozygous Cat#002019, The Jackson Lab) were xenografted with 1×10^6 SYO-1 cells that had been resuspended in 1×PBS 30% Matrigel (Corning, Inc., Cat# CB-40234). Mice were anesthetized with 1-2% isofluorane and injected at the left flank. The mice were observed until each tumor size was 100 mm3 by caliper measurement, at which point each individual mouse began daily injections of DHEA 1 mg/30 uL ( ), SWV-49s 3.75 mM, SWV-273.75 mM, SV-119 3.75 mM, SWV-27/SV-119 3.75 mM, or control vehicle Cremiphor. All agents were suspended in Cremiphor. Treatment or placebo injections continued for a total of 12 days. Daily caliper and weight measurements for a total of 30 days were undertaken for each cohort. Mice were sacrificed appropriately by “ ” guidelines and after the conclusion of the in vivo experiment.

[3] = test system: SYO-1 and FUJI synovial sarcoma (SS) cell lines; experiment: Pretreatment before glucose deprivation, protection from cell death (PI FACS); type: cell-based
Procedure: During the routine cell culture splitting procedure, cell lines were plated in 6 well plates at 200,000 cells in 2 mL media. Samples were incubated at 37° C. for duration of experiment. Samples were washed with PBS and detached with 0.05% Trypsin/EDTA. Aliquots were diluted 1:2 with Trypan Blue (Sigma) and a viable cell count was obtained using a hemacytometer. For glucose and glutamine deprivation experiments, 200,000 cells were plated in standard media and incubated overnight. Samples were washed 3 times with 1×DPBS (Gibco), and the media was changed to DMEM (control samples) or glucose/glutamine free DMEM (experimental samples). Cell counts were taken as previously described at 2, 4, 6, and 8 hours after the media was changed, and normalized to cell counts taken from growth samples counted at the time the media was changed.
as §1
Cell viability was determined in tissue culture experiments by the trypan blue dye exclusion test. For the evaluation of glucose deprivation, cell lines were plated in a 6-well format at 200,000 cells per well on day 1. SYO was cultured and plated in Dulbecco's Modified Eagle Medium (DMEM) with 10% FBS and penicillin/streptomycin (include additional glucose concentration), which FUJI was cultured in RPMI medium with 10% FBS and penicillin/streptomycin. The following day, glucose-containing media was removed, and each well was washed with 1-2 mL of phosphate buffered saline (PBS) three times to ensure elimination of residual glucose. Glucose-free media was then replaced in each well for the duration of the experiment. At the end point, the glucose-free media was removed and each well washed with 1 mL of PBS. One-half milliliter of trypsin 0.05% was then applied to each well, later aggressively resuspended in 0.5 mL of media for a total cell volume of 1 mL. Twenty microliters of each well was then counted via hemocytometer, excluding those non-viable cells that were positive for trypan blue uptake and/or fragmented.
For the evaluation of glucose deprivation alone and under additional conditions, cell lines were plated in a 6-well format at 200,000 cells per well on day 1. SYO was cultured and plated in Dulbecco's Modified Eagle Medium (DMEM) with 10% FBS and penicillin/streptomycin (include additional glucose concentration), which FUJI was cultured in RPMI medium with 10% FBS and penicillin/streptomycin. The following day, glucose-containing media was removed, and each well was washed with 1-2 mL of phosphate buffered saline (PBS) three times to ensure elimination of residual glucose. Glucose-free media was then replaced in each well for the duration of the experiment. […]

[4] = Phase I open-label study of olaratumab and doxorubicin in patients with advanced soft tissue sarcoma (PK, DDI, safety)
Procedure: Patients with metastatic or locally advanced STS not amenable to treatment with surgery or curative radiotherapy, aged years with an ECOG PS of 0-2 and documented LVE fraction ≥50% were included. The primary objective was to assess the effect of Olara on the PK of Dox. Secondary objectives were to further characterize the PK and safety profiles of Olara alone and in combination with Dox. Drug-drug interaction (DDI) was assessed in 21-day cycles, where patients received each drug alone (Cycle 1) then in combination (Cycle 2). In Cycles 3-8, patients with clinical benefit could continue treatment with Olara+Dox. 15-mg/kg Olara was given IV over ˜60 min; 75-mg/m^2 Dox was given IV over ˜15 min.

[5] = test system: SYO-1 and FUJI cell lines; experiment: Erastin / sigma-2 erastin treatment, cell death; type: cell-based; conditions: in as little as 8 hours, compared to control lines SKLMS-1 and MG63
Procedure: as §1, §2

[6] = pretreatment one hour prior to glucose-free media change

C[C@]12CC[C@H](O)CC1=CC[C@@H]1[C@@H]2CC[C@]2(C)C(=O)CC[C@@H]12 [DHEA, dehydroepiandrosterone]
cell death [1]: varying but significant cell death
tumor size [2]: dramatic decrease in tumor size
tolerability of dose and regimen ([2]; murine model): well-tolerated

CCOC(=O)c1ccc(NC2CCCCC2)c(N)c1 [ferrostatin]
protection from cell death under glucose deprivation [3, 6]: significant protection from glucose-deprivation mediated cell death

Olaratumab
effect on systemic exposure to Dox ([4]; IV infusion, both agents given in combination): did not have a clinically relevant effect
CL ([4]; human, in vivo): 0.0218 L/h
mean CL ([4]; human, in vivo): 0.0259 L/h
mean Cmax ([4]; human, in vivo): 393 µg/mL
median tmax post start of infusion ([4]; human, in vivo): ~2.8 h
time of Cmax post start of infusion ([4]; human, in vivo): ~2 h
mean Cmax ([4]; human, in vivo, iv, 15 mg/kg): 293 µg/mL

CC(=O)N[C@@H](CS)C(=O)O [NAC]
protection from cell death under glucose deprivation ([3]; 10 mM, pretreated one hour prior to glucose deprivation, 2 and 6 hours): protection from cell death was noted

CC(NC(=O)C(NC(=O)OCc1ccccc1)C(C)C)C(=O)NC(CC(=O)O)C(=O)CF (stereo not drawn) [ZVAD] (Cbz-Val-Ala-Asp-CH2F; configuration not given here)
protection from cell death under glucose deprivation [3, 6]: did not result in protection from cell death

Cc1c(O)c(=O)ccn1C [deferiprone]
protection from cell death under glucose deprivation ([3]; pretreated one hour prior to glucose deprivation, acute time course of 2-6 hours): significant protection from cell death

CN1C(=O)C(Cc2c[nH]c3ccccc23)NC1=S (stereo not shown) [necrostatin]
protection from cell death under glucose deprivation [3, 6]: did not result in protection from cell death

CCOc1ccccc1-n1c(C(C)N2CCN(C(=O)COc3ccc(Cl)cc3)CC2)nc2ccccc2c1=O (stereo not shown) [erastin]
cell death [5]: approximately 40%

From patent publication US11175296B2, “Methods of diagnosing and treating cancer comprising ME1” (Washington University, priority 2016, dated 2021)
